Measurements as given in patent US8945635B2, “Formulations comprising extracts from primitive plant species (mosses, ferns and lichens) to treat and prevent cancers” (priority 2006, dated 2015).
Where two headings read alike, the source gives them in different places.

Key:
[1] = system: GBM multicellular tumor spheroid (MTS) culture (ATCC crl-2020)
Description: (§1) Carmustine, berberine, curcumin, caffeic acid phenyl ester (CAPE), abscisic acid and a extract sample 19 (fern) were used, singly and in various combinations, to assess their potential effectiveness in promoting in vitro cell death responses in a malignant GBM cell line (ATCC crl-2020). Two different culture models were used in these experiments. The majority of vertebrate cells cultured in vitro grow as monolayers on an artificial substrate, as is the case with GBM cells. Live cells attach to the bottom of a tissue culture plate where they proliferate until the surface is confluent with cells. […] The three dimensional structure of solid tumors makes such tumors more resistant to treatment than a GBM cell monolayer culture. To more closely approximate in vivo conditions a multi-cellular tumor spheroid (MTS) model was used. In this model GBM cells were cultured on a 1% agarose matrix in a 24 well tissue culture dish to form multi cellular aggregates. […] Trypan blue staining and microscopic observation was used to assess cell viability after treatment.
A GBM multicellular tumor spheroid (MTS) culture plate was treated with moderately low concentrations of carmustine (50 μM dose); curcumin (20 μM dose); CAPE (20 μM dose); ABA (400 μM dose) and extract sample 19 (10 mg/mL dose). The treated cultures were incubated for 24 hours at 38° C. and assayed. The dosing conditions were designed to represent sub-optimal dosing conditions.
A GBM multicellular tumor spheroid (MTS) culture plate was treated with different two agent and three agent combinations including curcumin and extract sample 13; carmustine and extract sample 13; carmustine and curcumin; and carmustine and curcumin and extract sample 13. The agent concentrations were the same as in the single agent testing (carmustine (50 μM dose); curcumin (20 μM dose); CAPE (20 μM dose); ABA (400 μM dose) and extract sample 13 (10 mg/mL dose).
The treated cultures were incubated for 24 hours at 38° C. and assayed. The dosing conditions were designed to represent sub-optimal dosing conditions.

[2] = system: GBM monolayer culture (ATCC crl-2020); details: for Viability: GBM monolayer, 12 hours at 38° C., carmustine 50 μM, curcumin 20 μM, CAPE 20 μM, ABA 400 μM, extract sample 19 10 mg/mL
Description: as §1
A GBM monolayer culture plate was treated with moderately low concentrations of carmustine (50 μM dose); curcumin (20 μM dose); CAPE (20 μM dose); ABA (400 μM dose) and extract sample 19 (10 mg/mL dose). The treated cultures were incubated for 12 hours at 38° C. and assayed. The dosing conditions were sub-optimal dosing conditions designed to allow better assessment of the combined agent results.

[3] = system: Glioblastoma Multiforme (GBM); details: cited from earlier work
[4] = system: Metastatic colon cancer (SW620) MTS cells; assay: Single agent treatment of metastatic colon cancer MTS cells; format: cell-based, human; details: 5 days, 5-fluorouracil 2.5 μM, Gemcitabine 5 μM
Description: Metastatic MTS colon cancer (SW620) were treated for 24 hours with extract samples 1 (moss), 2 (moss), 4 (moss), 6 (moss), 5 (moss), 7 (fern), 8 (fern), 9 (moss), all at 50 mg/mL, and for 5 days with the standard chemotherapeutics 5-fluorouracil at 2.5 μM and Gemcitabine at 5 μM.
Metastatic colon cancer (SW620) MTS cells were treated for 24 hours with extract samples 12 (moss), 13 (fern), 14 (lichen), all at 50 mg/mL, and for 5 days with the standard chemotherapeutics 5-fluorouracil at 2.5 μM and Gemcitabine at 5 μM.

[5] = GBM MTS cell cultures, agent used alone
[6] = GBM monolayer cell cultures, agent used alone
[7] = Table 18, standard chemotherapeutics
[8] = Table 19, standard chemotherapeutics

| Molecule | cytotoxicity of single agent in words [1, 5] | cytotoxicity of single agent in words [2, 6] | Viability [2] | % dead cells [4, 7] | % live cells [4, 7] | % dead cells [4, 8] | % live cells [4, 8] | other results |
| --- | --- | --- | --- | --- | --- | --- | --- | --- |
| COc1cc(/C=C/C(=O)CC(=O)/C=C/c2ccc(O)c(OC)c2)ccc1O [curcumin] |  |  |  |  |  |  |  | cytotoxicity of single agent in words [1]: failed to produce significant cytotoxic responses; cytotoxicity of single agent in words [2]: failed to produce significant cytotoxic responses |
| O=NN(CCCl)C(=O)NCCCl [carmustine, 1,3-bis(2-chloroethyl)-1-nitrosourea] | only low level cytotoxicity | only low level cytotoxicity | 100% |  |  |  |  | side effects ([3]; Intravenous administration): a decrease of bone marrow blood cells, lung damage and death; mean survival rate ([3]; applied in time release fashion to the tumor site, from 11.6 months): 13.9 months |
| O=c1[nH]cc(F)c(=O)[nH]1 [5-fluorouracil] |  |  |  | 55% | 45% | 75% | 25% |  |
| caffeic acid phenyl ester [CAPE] | failed to produce significant cytotoxic responses | failed to produce significant cytotoxic responses | 100% |  |  |  |  |  |
| Nc1ccn([C@@H]2O[C@H](CO)[C@@H](O)C2(F)F)c(=O)n1 [Gemcitabine] |  |  |  | 20% | 80% | 95% | 5% |  |
| CC1=CC(=O)CC(C)(C)[C@@]1(O)/C=C/C(C)=C\C(=O)O [ABA, abscisic acid] | failed to produce significant cytotoxic responses | failed to produce significant cytotoxic responses | 100% |  |  |  |  |  |
